Measured values published in patent publication US11390609B2, “Rho-associated protein kinase inhibitor, pharmaceutical composition comprising same, and preparation method and use thereof” (BEIJING TIDE PHARMACEUTICAL CO., LTD., priority 2017, dated 2022).

What was measured:
ROCK1 = ROCK1 (Homo sapiens (Human), UniProt Q13464); experiment: ROCK1 kinase IC50 assay (biological test method similar to the ROCK2 assay); format: biochemical
How it was run: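 Compound dilution series (9 concentrations, top solution 10000 nM, DMSO-containing buffer) incubated 2 h at room temperature with kinase, STK-S2 substrate and ATP (5× working solutions of 1.5 µM each). Phosphorylation detected by HTRF (665/615 nm emission ratio) after 1 h; inhibition relative to full-reaction and kinase-free wells, fitted for IC50.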

ROCK2 = ROCK2 (Homo sapiens, UniProt O75116); experiment: ROCK2 kinase IC50 assay (CISBIO HTRF KinEASE-STK S2 kit); format: biochemical; conditions: incubated at room temperature for 2 hours
Procedure: The kinase IC50 was determined by a commercialized CISBIO kinase detection kit, HTRF KinEASE-STK S2 kit (62ST2PEC). ROCK2 (01-119) employed in the reaction was purchased from Carna Biosciences.
Before the assay, the following working solutions as needed were formulated with corresponding reagents according to the instruction of the kinase detection kit: 1×kinase buffer, 5×STK-52 substrate working solution (1.5 μM) and 5×ATP working solution (1.5 μM), 5×ROCK2 kinase working solution, 4×Streptavidin-XL665 working solution, and 4×STK-Ab-Cryptate 2 detection solution. Then the assay was performed according to the following procedure.
A solution of a compound at a concentration of 10000 nM was prepared with the 1×kinase buffer containing 2.5% DMSO. Gradient dilution of the solution of the compound was performed with the kinase buffer containing DMSO, so as to obtain solutions of a test compound at 9 different concentrations. In addition to wells of test compounds, a positive well (containing all the reagents except the compound) and a negative well (containing all the reagents except the test compound and kinase) were set. Except for the control wells (positive and negative wells), a solution of a test compound (4 μL) was added to each of the reaction wells, and a solution of 2.5% DMSO was added to the control wells. Then the substrate ([…], 2 μL. 5×STK-S2 substrate working solution) was added to each of the reaction wells. The 5×ROCK2 kinase working solution (2 μL, containing 1.4 ng ROCK2 kinase) was added to each of the reaction wells except for the negative well, the volume of which was made up with the 1×kinase buffer (2 μL). The 5×ATP working solution (2 μL) was added to each of the reaction wells, and the mixtures were incubated at room temperature for 2 hours. After the kinase reaction was complete, the 4×Streptavidin-XL665 working solution was added to each of the reaction wells, the solutions were mixed, followed by immediate addition of the 4×STK-Ab-Cryptate 2 detection solution (5 μL), and the mixtures were incubated at room temperature for 1 hour. The fluorescence signal was read on ENVISION (Perkinelmer) (excitation wavelength: 320 nm, and emission wavelength: 665 nm and 615 nm). The inhibitory rate in each well was calculated based on the fluorescence intensity value: ER (Emission Ratio)=(fluorescence intensity at 665 nm/fluorescence intensity at 615 nm); inhibitory rate=(ERpositive−ERtest compound)/(ERpositive−ERnegative)*100%. Curves were plotted and fitted to obtain the median inhibitory concentration (IC50) of each teat compound with the PRISM 5.0 software.

Chain of ROCK1 (Q13464 whole entry, species assumed): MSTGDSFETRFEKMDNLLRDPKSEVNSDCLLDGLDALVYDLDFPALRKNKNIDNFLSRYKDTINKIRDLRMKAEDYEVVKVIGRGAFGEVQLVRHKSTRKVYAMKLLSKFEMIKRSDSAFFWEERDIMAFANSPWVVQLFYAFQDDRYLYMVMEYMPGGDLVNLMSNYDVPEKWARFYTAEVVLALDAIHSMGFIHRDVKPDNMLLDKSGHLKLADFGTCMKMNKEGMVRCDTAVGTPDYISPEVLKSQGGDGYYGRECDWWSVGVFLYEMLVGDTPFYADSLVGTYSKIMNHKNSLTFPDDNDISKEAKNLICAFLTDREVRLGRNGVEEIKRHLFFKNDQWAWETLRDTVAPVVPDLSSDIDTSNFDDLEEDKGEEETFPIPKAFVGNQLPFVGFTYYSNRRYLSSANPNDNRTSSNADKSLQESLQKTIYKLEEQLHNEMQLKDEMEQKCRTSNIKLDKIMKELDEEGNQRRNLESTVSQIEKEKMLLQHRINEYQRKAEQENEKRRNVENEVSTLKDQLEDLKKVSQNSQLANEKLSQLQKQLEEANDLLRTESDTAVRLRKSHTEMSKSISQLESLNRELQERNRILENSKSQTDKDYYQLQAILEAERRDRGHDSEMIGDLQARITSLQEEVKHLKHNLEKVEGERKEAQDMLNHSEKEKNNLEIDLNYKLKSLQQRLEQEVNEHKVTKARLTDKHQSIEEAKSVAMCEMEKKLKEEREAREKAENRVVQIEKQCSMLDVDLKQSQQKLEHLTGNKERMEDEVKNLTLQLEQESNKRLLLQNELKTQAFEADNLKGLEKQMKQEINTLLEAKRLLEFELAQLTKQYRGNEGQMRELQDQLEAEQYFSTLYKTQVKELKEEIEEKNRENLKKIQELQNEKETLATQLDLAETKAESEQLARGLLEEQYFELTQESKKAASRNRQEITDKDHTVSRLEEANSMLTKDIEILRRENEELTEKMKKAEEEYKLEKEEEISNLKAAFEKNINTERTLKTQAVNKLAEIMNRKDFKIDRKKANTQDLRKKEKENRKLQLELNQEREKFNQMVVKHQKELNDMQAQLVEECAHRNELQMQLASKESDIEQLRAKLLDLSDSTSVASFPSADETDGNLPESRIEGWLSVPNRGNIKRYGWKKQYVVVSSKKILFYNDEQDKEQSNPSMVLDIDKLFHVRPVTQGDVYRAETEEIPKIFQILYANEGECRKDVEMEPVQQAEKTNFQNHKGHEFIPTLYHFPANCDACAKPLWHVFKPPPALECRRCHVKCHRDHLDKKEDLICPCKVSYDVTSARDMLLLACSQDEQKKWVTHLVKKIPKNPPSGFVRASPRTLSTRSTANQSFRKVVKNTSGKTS

SMILES	IC50 (ROCK1) [µM]	IC50 (ROCK2) [nM]
CS(=O)(=O)C1CN(C(=O)c2cc3ccc(-c4nccc(Nc5ccc(-c6cn[nH]c6)cc5)n4)cc3[nH]2)C1 [TDI01465, (6-(4-((4-(1H-pyrazol-4-yl)phenyl)amino)pyrimidin-2-yl)-1H-indol-2-yl)(3-(methylsulfonyl)azetidin-l-yl)methanone]	> 10	398
O=C(c1cc2ccc(-c3nc(Nc4ccc(-c5cn[nH]c5)cc4)c4sccc4n3)cc2[nH]1)N1CC(F)(F)C1 [TDI01472, (6-(4-((4-(1H-pyrazol-4-yl)phenyl)amino)thieno [3,2-d]pyrimidin-2-yl)-1H-indol-2-yl)(3,3-difluoroazetidin-1-yl)methanone]	> 10	174
O=C(c1cc2ccc(-c3nccc(Nc4ccc(-c5cn[nH]c5)cc4)n3)cc2[nH]1)N1CCC(F)C1 (stereo not shown) [TDI01473, (6-(4-((4-(1H-pyrazol-4-yl)phenyl)amino)pyrimidin-2-yl)-1H-indol-2-yl)(3-fluoropyrrolidin-1-yl)methanone]	0.592	18
O=C(c1cc2ccc(-c3nccc(Nc4ccc(-c5cn[nH]c5)cc4)n3)cc2[nH]1)N1C[C@@H](F)[C@@H](F)C1 [TDI01477, (6-(4-((4-(1H-pyrazol-4-yl)phenyl)amino)pyrimidin-2-yl)-1H-indol-2-yl)((3S,4R)-3,4-difluoropyrrolidin-1-yl)methanone]	1.13	47
O=C(c1cc2ccc(-c3nccc(Nc4ccc(-c5cn[nH]c5)cc4)n3)cc2[nH]1)N1CCC(F)(F)CC1 [TDI01485, (6-(4-((4-(1H-pyrazol-4-yl)phenyl)amino)pyrimidin-2-yl)-1H-indol-2-yl)(4,4-difluoropiperidin-1-yl)methanone]	3.99	276
O=C(c1cc2ccc(-c3nccc(Nc4ccc(-c5cn[nH]c5)cc4)n3)cc2[nH]1)N1CCC2(C1)CC2(F)F (stereo not shown) [TDI01486, (6-(4-((4-(1H-pyrazol-4-yl)phenyl)amino)pyrimidin-2-yl)-1H-indol-2-yl)(1,1-difluoro-5-azaspiro[2.4]heptan-5-yl)methanone]	3	185
O=C(NC1CC(F)C1)c1cc2ccc(-c3nc(Nc4ccc(-c5cn[nH]c5)cc4)c4sccc4n3)cc2[nH]1 (stereo not shown) [TDI01487, 6-(4-((4-(1H-pyrazol-4-yl)phenyl)amino)thieno [3,2-d]pyrimidin-2-yl)-N-(3-fluorocyclobutyl)-1H-indole-2-carboxamide]	5.04	193
O=C(c1cc2ccc(-c3nccc(Nc4ccc(-c5cn[nH]c5)cc4)n3)cc2[nH]1)N1CC2C(C1)C2(F)F (stereo not shown) [TDI01490, (6-(4-((4-(1H-pyrazol-4-yl)phenyl)amino)pyrimidin-2-yl)-1H-indol-2-yl)(6,6-difluoro-3-azabicyclo[3.1.0]hexan-3-yl)methanone]	2.25	81
O=C(c1cc2ccc(-c3nccc(Nc4ccc(-c5cn[nH]c5)cc4)n3)cc2[nH]1)N1CCS(=O)(=O)CC1 [TDI01497, (6-(4-((4-(1H-pyrazol-4-yl)phenyl)amino)pyrimidin-2-yl)-1H-indol-2-yl)(1,1-dioxidothiomorpholino) methanone]	> 10	319
O=C(c1cc2ccc(-c3nccc(Nc4ccc(-c5cn[nH]c5)cc4)n3)cc2[nH]1)N1CC(=NO)C1 [TDI01498, (6-(4-((4-(1H-pyrazol-4-yl)phenyl)amino)pyrimidin-2-yl)-1H-indol-2-yl)(3-(hydroxyimino)azetidin-1-yl)methanone]	> 10	415
N#CC1CN(C(=O)c2cc3ccc(-c4nccc(Nc5ccc(-c6cn[nH]c6)cc5)n4)cc3s2)C1 [TDI01500, 1-(6-(4-((4-(1H-pyrazol-4-yl)phenyl)-amino)-pyrimidin-2-yl)benzo[b]-thiophene-2-carbonyl)-azetidine-3-carbonitrile]	> 10	13
Cn1c(C(=O)N2CCC(O)(C(F)(F)F)C2)cc2ccc(-c3nccc(Nc4ccc(-c5cn[nH]c5)cc4)n3)cc21 (stereo not shown) [TDI01505, (6-(4-((4-(1H-pyrazol-4-yl)phenyl)amino)pyrimidin-2-yl)-1-methyl-1H-indol-2-yl) (3-hydroxy-3-(trifluoromethyl)pyrrolidin-1-yl)methanone]	5.67	209
Cn1c(C(=O)N2CCC(C(F)(F)F)C2)cc2ccc(-c3nccc(Nc4ccc(-c5cn[nH]c5)cc4)n3)cc21 (stereo not shown) [TDI01506, (6-(4-((4-(1H-pyrazol-4-yl)phenyl)amino)pyrimidin-2-yl)-1-methyl-1H-indol-2-yl)(3-(trifluoromethyl)pyrrolidin-1-yl) methanone]	7.3	295
Cn1c(C(=O)N2CCC(F)(F)C2)cc2ccc(-c3nccc(Nc4ccc(-c5cn[nH]c5)cc4)n3)cc21 [TDI01507, (6-(4-((4-(1H-pyrazol-4-yl)phenyl)amino)pyrimidin-2-yl)-1-methyl-1H-indol-2-yl)(3,3-difluoropyrrolidin-1-yl)methanone]	6.84	113
Cn1c(C(=O)N2CC(F)(F)C2)cc2ccc(-c3nc(Nc4ccc(-c5cn[nH]c5)cc4)c4sccc4n3)cc21 [TDI01508, (6-(4-((4-(1H-pyrazol-4-yl)phenyl)amino)thieno[3,2-d]pyrimidin-2-yl)-1-methyl-1H-indol-2-yl)(3,3-difluoroazetidin-1-yl)methanone]	> 10	159
Cn1c(C(=O)N2CC3C(C2)C3(F)F)cc2ccc(-c3nccc(Nc4ccc(-c5cn[nH]c5)cc4)n3)cc21 (stereo not shown) [TDI01512, (6-(4-((4-(1H-pyrazol-4-yl)phenyl)amino)pyrimidin-2yl)-1-methyl-1H-indol-2-yl)(6,6-difluoro-3-azabicyclo[3.1.0]hexan-3-yl)methanone]	3.63	22
Cn1c(C(=O)N2CCC3(C2)CC3(F)F)cc2ccc(-c3nccc(Nc4ccc(-c5cn[nH]c5)cc4)n3)cc21 (stereo not shown) [TDI01513, (6-(4-{(4-(1H-pyrazol-4-yl)phenyl)amino)pyrimidin-2-yl)-1-methyl-1H-indol-2-yl)(1,1-difluoro-5-azaspiro[2.4]heptan-5-yl)methanone]	7.42	269
Cn1c(C(=O)N2C[C@@H](F)[C@@H](F)C2)cc2ccc(-c3nccc(Nc4ccc(-c5cn[nH]c5)cc4)n3)cc21 [TDI01514, (6-(4-((4-(1H-pyrazol-4-yl)phenyl)amino)pyrimidin-2-yl)-1-methyl-1H-indol-2-yl) ((3S,4R)-3,4-difluoropyrrolidin-1-yl)methanone]	2.73	49
Cn1c(C(=O)N2CC(=CC#N)C2)cc2ccc(-c3nccc(Nc4ccc(-c5cn[nH]c5)cc4)n3)cc21 [TDI01515, 2-(1-(6-(4-((4-(1H-pyrazol-4-yl)phenyl)amino)pyrimidin-2-yl)-1-methyl-1H-indole-2-carbonyl)azetidin-3-ylidene) acetonitrile]	6.86	110
CC(=O)C1CN(C(=O)c2cc3ccc(-c4nccc(Nc5ccc(-c6cn[nH]c6)cc5)n4)cc3n2C)C1 [TDI01517, 1-(1-(6-(4-((4-(1H-pyrazol-4-yl)phenyl)amino)pyrimidin-2-yl)-1-methyl-1H-indole-2-caibonyl)azetidin-3-yl)ethan-1-one]	> 10	92
